Experimental data taken from the NIST ThermoML archive (doi:10.1021/acs.jced.6b00450).
± gives the expanded uncertainty stated by the source.

What was measured:
[1] = for Normal melting temperature: Crystal, DTA; for Glass transition temperature: DSC; for viscosity / mass density: 101.33 kPa, Liquid; for viscosity: Concentric cylinders viscometry; for mass density: Vibrating tube method
[2] = refractive index (Na D-line) (dimensionless); conditions: 101.33 kPa, Liquid, Standard Abbe refractometry

Row | SMILES | Normal melting temperature [1] | Glass transition temperature [1] | refractive index ([2]; 293.15 K) | refractive index ([2]; 298.15 K) | refractive index ([2]; 303.15 K) | refractive index ([2]; 308.15 K) | refractive index ([2]; 313.15 K) | refractive index ([2]; 318.15 K) | refractive index ([2]; 323.15 K) | viscosity ([1]; 303.15 K) | mass density ([1]; 303.15 K) | viscosity ([1]; 313.15 K) | mass density ([1]; 313.15 K) | viscosity ([1]; 323.15 K) | mass density ([1]; 323.15 K) | viscosity ([1]; 333.15 K) | mass density ([1]; 333.15 K) | viscosity ([1]; 343.15 K) | mass density ([1]; 343.15 K) | viscosity ([1]; 353.15 K) | further results
1 | N#CCCn1cc[nH+]c1.O=C([O-])C(F)(F)F [1-(2-cyanoethyl)imidazolium trifluoroacetate] | -13.48 ± 2 °C |  |  |  |  |  |  |  |  |  |  |  |  |  |  |  |  |  |  |  | 
2 | CS(=O)(=O)[O-].N#CCCn1cc[nH+]c1 [1-(2-cyanoethyl)imidazolium methanesulfonate] |  | -59.40 ± 2.1 °C | 1.50224 ± 0.007 | 1.50096 ± 0.007 | 1.49962 ± 0.007 | 1.49826 ± 0.007 | 1.49686 ± 0.007 | 1.49547 ± 0.007 | 1.49402 ± 0.007 |  |  |  |  |  |  |  |  |  |  |  | 
3 | N#CCCn1cc[nH+]c1.O=S(=O)([O-])O [1-(2-cyanoethyl)imidazolium hydrogen sulfate] |  | -49.71 ± 2.1 °C | 1.5022 ± 0.007 | 1.50138 ± 0.007 | 1.50034 ± 0.007 | 1.49927 ± 0.007 | 1.49817 ± 0.007 | 1.49708 ± 0.007 | 1.49599 ± 0.007 | 3102.2 ± 220 mPa·s | 1423.3 ± 4 kg/m3 | 1397.9 ± 81 mPa·s | 1417.4 ± 4 kg/m3 | 707.69 ± 33 mPa·s | 1411.4 ± 4 kg/m3 | 394.22 ± 14 mPa·s | 1405 ± 4 kg/m3 | 236.85 ± 6.5 mPa·s | 1398.8 ± 4 kg/m3 | 151.62 ± 3 mPa·s | viscosity ([1]; 293.15 K): 7937 ± 700 mPa·s; mass density ([1]; 293.15 K): 1429.4 ± 4 kg/m3; mass density ([1]; 353.15 K): 1393 ± 4 kg/m3; viscosity ([1]; 363.15 K): 102.28 ± 1.4 mPa·s; mass density ([1]; 363.15 K): 1385.9 ± 4 kg/m3; viscosity ([1]; 373.15 K): 72.1 ± 0.55 mPa·s; mass density ([1]; 373.15 K): 1378.6 ± 4 kg/m3
4 | CC(=O)[O-].N#CCCn1cc[nH+]c1 [1-(2-cyanoethyl)imidazolium acetate] |  | -78.12 ± 2.1 °C | 1.48534 ± 0.007 | 1.48368 ± 0.007 | 1.48197 ± 0.007 | 1.48025 ± 0.007 | 1.47851 ± 0.007 | 1.4768 ± 0.007 | 1.47508 ± 0.007 | 55.28 ± 0.49 mPa·s | 1120.5 ± 4.1 kg/m3 | 31.57 ± 0.3 mPa·s | 1113 ± 4.1 kg/m3 | 19.79 ± 0.19 mPa·s | 1105.2 ± 4.1 kg/m3 | 13.32 ± 0.13 mPa·s | 1097.7 ± 4.1 kg/m3 | 9.483 ± 0.092 mPa·s | 1089.8 ± 4.1 kg/m3 | 7.118 ± 0.069 mPa·s | viscosity ([1]; 293.15 K): 108.22 ± 1.7 mPa·s; mass density ([1]; 293.15 K): 1127.7 ± 4.1 kg/m3; mass density ([1]; 353.15 K): 1082 ± 4.1 kg/m3; viscosity ([1]; 363.15 K): 5.294 ± 0.052 mPa·s; mass density ([1]; 363.15 K): 1073.2 ± 4.1 kg/m3; viscosity ([1]; 373.15 K): 4.252 ± 0.042 mPa·s; mass density ([1]; 373.15 K): 1062.2 ± 4.1 kg/m3
5 | N#CCCn1cc[nH+]c1.O=S(=O)([O-])C(F)(F)F [1-(2-cyanoethyl)imidazolium trifluoromethanesulfonate] | 99.67 ± 2 °C |  |  |  |  |  |  |  |  |  |  |  |  |  |  |  |  |  |  |  | 
6 | Cc1ccc(S(=O)(=O)[O-])cc1.N#CCCn1cc[nH+]c1 [1-(2-cyanoethyl)imidazolium 4-methylbenzenesulfonate] |  | -57.34 ± 2.1 °C | 1.54509 ± 0.0072 | 1.54414 ± 0.0072 | 1.54297 ± 0.0072 | 1.54177 ± 0.0072 | 1.54051 ± 0.0072 | 1.53926 ± 0.0072 | 1.53798 ± 0.0072 | 24795 ± 2900 mPa·s | 1266.3 ± 30 kg/m3 | 6910.9 ± 670 mPa·s | 1259.6 ± 30 kg/m3 | 2376.6 ± 190 mPa·s | 1253 ± 30 kg/m3 | 977.44 ± 67 mPa·s | 1247.9 ± 30 kg/m3 | 459.63 ± 27 mPa·s | 1241.2 ± 29 kg/m3 | 239.96 ± 13 mPa·s | mass density ([1]; 353.15 K): 1233.7 ± 29 kg/m3; viscosity ([1]; 363.15 K): 138.89 ± 6.7 mPa·s; mass density ([1]; 363.15 K): 1229.1 ± 29 kg/m3; viscosity ([1]; 373.15 K): 85.89 ± 4 mPa·s; mass density ([1]; 373.15 K): 1221.5 ± 28 kg/m3
7 | Cn1ccnc1.O=S(=O)(O)O [1-methylimidazolium hydrogen sulfate] | 20.88 ± 2 °C | -73.49 ± 2.1 °C | 1.48955 ± 0.007 | 1.48865 ± 0.007 | 1.48761 ± 0.007 | 1.48655 ± 0.007 | 1.48552 ± 0.007 | 1.48432 ± 0.007 | 1.48311 ± 0.007 |  |  |  |  |  |  |  |  |  |  |  | 
